Test results: the Deep4Chem optical property database
Values belong to the compound of their own block, whether it stands above or below them.

Test: solvent given as SMILES
[1] = in O=P(c1ccccc1)(c1ccccc1)c1ccccc1Oc1ccccc1P(=O)(c1ccccc1)c1ccccc1

Compound: CC1(C)C(/C=C/C=C/C=C/C=C2/N(CS(=O)(=O)[O-])c3ccc(S(=O)(=O)[O-])cc3C2(C)C)=[N+](CS(=O)(=O)[O-])c2ccc(S(=O)(=O)[O-])cc21
emission maximum (in CO): 776 nm | emission maximum (in O): 771 nm

Compound: COc1ccc(-c2nc3ccccc3nc2-c2ccc(OC)cc2)cc1
emission maximum (in C1CCOC1): 432 nm | emission maximum (in CC#N): 435 nm | emission maximum (in CCCCCC): 423 nm | emission maximum (in CN(C)C=O): 432 nm | emission maximum (in Cc1ccccc1): 426 nm | emission maximum (in ClC(Cl)Cl): 430 nm

Compound: Cc1cn(C)c(=O)nc1-n1cncn1
emission maximum (in O): 389 nm

Compound: CC[N+]1(CC)CN2C(C)=CC(C)=C(C(=O)O)C2=N1
emission maximum (in CN(C)C=O): 449 nm | emission maximum (in O): 449 nm

Compound: F[B-]1(F)n2c(Cl)c(Cl)c(Br)c2C(Cl)=C2C(Br)=C(Cl)C(Cl)=[N+]21
emission maximum (in ClCCl): 560 nm

Compound: c1ccc2c(c1)Cc1ccccc1N2c1c2ccccc2c(N2c3ccccc3Cc3ccccc32)c2ccccc12
emission maximum (in Cc1ccccc1): 553 nm

Compound: C1=C(c2ccc(-c3cccs3)s2)CCC(c2ccccc2)C1 (centres undefined)
emission maximum (in C1CCOC1): 412 nm | emission maximum (in CC#N): 411 nm | emission maximum (in CCCCCC): 409 nm | emission maximum (in CCO): 411 nm | emission maximum (in OCCOCCO): 412 nm | emission maximum (in c1ccncc1): 417 nm

Compound: CC1=NN(c2ccccc2)C(=O)/C1=C/c1cn(-c2ccccc2)nc1-c1ccccc1
emission maximum (in C1CCOC1): 429 nm | emission maximum (in C1COCCO1): 407 nm | emission maximum (in CCO): 427 nm | emission maximum (in CCOC(C)=O): 422 nm | emission maximum (in CN(C)C=O): 435 nm | emission maximum (in CO): 430 nm | emission maximum (in CS(C)=O): 437 nm | emission maximum (in Cc1ccccc1): 416 nm | emission maximum (in ClC(Cl)Cl): 432 nm | emission maximum (in ClCCl): 436 nm

Compound: CCCCCCCCc1ccc(-c2ccc(-c3cc(-c4ccc(-c5ccc(CCCCCCCC)s5)c5nsnc45)c4ccc5c(-c6ccc(-c7ccc(CCCCCCCC)s7)c7nsnc67)cc(-c6ccc(-c7ccc(CCCCCCCC)s7)c7nsnc67)c6ccc3c4c65)c3nsnc23)s1
emission maximum (in ClC(Cl)Cl): 541 nm

Compound: CN(c1ccccc1)c1ccc(/C=C2\C(=O)c3ccccc3S2(=O)=O)cc1
emission maximum (in C1CCOC1): 532 nm | emission maximum (in C1COCCO1): 542 nm | emission maximum (in CC#N): 511 nm | emission maximum (in CC(C)=O): 537 nm | emission maximum (in CCOC(C)=O): 533 nm | emission maximum (in CN(C)C=O): 524 nm | emission maximum (in CO): 525 nm | emission maximum (in CS(C)=O): 552 nm | emission maximum (in Cc1ccccc1): 576 nm | emission maximum (in ClC(Cl)Cl): 532 nm | emission maximum (in ClCCl): 547 nm

Compound: c1ccc(-c2nc(-c3ccccc3)nc(-c3cc(-n4c5ccccc5c5ncccc54)c(-n4c5ccccc5c5ccccc54)c(-n4c5ccccc5c5ncccc54)c3)n2)cc1
emission maximum (in CC#N): 525.35 nm | emission maximum (in CCCCCC): 446.05 nm | emission maximum (in Cc1ccccc1): 464.88 nm | emission maximum (in ClCCl): 502.79 nm | emission maximum [1]: 455.49 nm

Compound: CC1=CC(C)=[N+]2C1=C(c1ccc(I)cc1)c1c(C)cc(C)n1[B-]2(OC(C)C)OC(C)C
emission maximum (in ClC(Cl)Cl): 517.73 nm

Compound: COc1ccc(-c2csc(/C(C#N)=N\Nc3ccc(C#N)cc3)n2)cc1
emission maximum (in CC#N): 505 nm | emission maximum (in CCO): 508 nm | emission maximum (in Cc1ccccc1): 494 nm | emission maximum (in ClCCl): 527 nm

Compound: CCCCCCCCCCC(CCCCCCCCCC)Cn1c2cc(-c3ccc(C(C)(C)C)cc3)c3cccc4c5ccc6c7cc(-c8cc(C(C)(C)C)cc(C(C)(C)C)c8)n8c7c(c7cc1c(c5c76)c2c34)=C1C=CC(c2cc(C(C)(C)C)cc(C(C)(C)C)c2)=[N+]1[B-]8(F)F
emission maximum (in Cc1ccccc1): 830 nm

Compound: CCc1c(C)c2n(c1C)[B-](F)(F)[N+]1=C(c3ccc[nH]3)c3ccccc3C1=C2C
emission maximum (in C1CCOC1): 627 nm | emission maximum (in CC#N): 623 nm | emission maximum (in CCCCCC): 622 nm | emission maximum (in CO): 622 nm | emission maximum (in Cc1ccccc1): 630 nm | emission maximum (in ClCCl): 629 nm

Compound: c1ccc(-c2nc(-c3ccccc3)nc(-c3ccc(-n4c5ccccc5c5cc6c(cc54)C(c4ccccc4)(c4ccccc4)c4ccccc4-6)cc3)n2)cc1
emission maximum (in C1CCOC1): 494.27 nm | emission maximum (in CCCCCC): 400.55 nm | emission maximum (in Cc1ccccc1): 442 nm | emission maximum (in ClCCl): 519.15 nm | emission maximum [1]: 471 nm

Compound: CC1(C)C(/C=C/C=C/C=C/C=C2/N(CCCCCC(=O)O)c3ccc(S(=O)(=O)[O-])cc3C2(C)C)=[N+](CCCCCC(=O)O)c2ccc(S(=O)(=O)[O-])cc21
emission maximum (in CO): 773 nm | emission maximum (in O): 771 nm

Compound: CCCCCCCCCCCCOc1cc2c3cc(OCCCCCCCCCCCC)c(OCCCCCCCCCCCC)cc3c3c(cc(OCCCCCCCCCCCC)c4nc5cc(C#Cc6ccc(CCCCCCCCCC)cc6)c(C#Cc6ccc(CCCCCCCCCC)cc6)cc5nc43)c2cc1OCCCCCCCCCCCC
emission maximum (in ClC(Cl)Cl): 663 nm

Compound: C(#Cc1nc2ccccc2s1)c1ccc(N(c2ccccc2)c2ccccc2)cc1
emission maximum (in Cc1ccccc1): 437 nm

Compound: COc1ccc(OC)c(C=O)c1
emission maximum (in CC(C)=O): 410 nm | emission maximum (in CCCO): 458 nm | emission maximum (in CCO): 459 nm | emission maximum (in CNC=O): 458 nm | emission maximum (in CO): 466 nm | emission maximum (in CS(C)=O): 431 nm | emission maximum (in ClC(Cl)Cl): 427 nm | emission maximum (in NC=O): 464 nm

Compound: CCCCCCCCc1ccc(-c2ccc(/C=C(\C#N)c3ccc(-c4cccc5cccc(-c6ccc(/C(C#N)=C/c7ccc(-c8ccc(CCCCCCCC)cc8)cc7)cc6)c45)cc3)cc2)cc1
emission maximum (in Cc1ccccc1): 491 nm

Compound: CN(C)c1ccc(C#Cc2ccc3ccc4c(C#Cc5ccc(N(C)C)cc5)ccc5ccc2c3c54)cc1
emission maximum (in C1COCCO1): 489.2 nm | emission maximum (in CC(C)=O): 569.6 nm | emission maximum (in CCCCCC): 460.4 nm | emission maximum (in CCCCCCO): 528.2 nm | emission maximum (in CCO): 540 nm | emission maximum (in CCOC(C)=O): 523.5 nm | emission maximum (in CO): 554 nm | emission maximum (in Cc1ccccc1): 483.7 nm | emission maximum (in ClCCl): 532.8 nm

Next, values leading:

emission maximum (in ClCCl): 601 nm
Compound: CN(C)c1ccc(C2=C3C=C(c4ccc(C#N)cc4)S[C@]34c3ccccc3[C@H]2c2ccccc24)cc1

emission maximum (in C1CCOC1): 371 nm
Compound: CCC1(CC)c2cc(Br)ccc2-c2c1c1c(c3c2C(CC)(CC)c2cc(-c4cccs4)ccc2-3)C(CC)(CC)c2cc(Br)ccc2-1

emission maximum (in ClCCl): 577 nm
Compound: CC1=C2C=CC(c3ccccc3)=[N+]2[B-](F)(F)n2c1ccc2-c1ccccc1

emission maximum (in CO): 416 nm
Compound: N#Cc1c(-n2nnc3ccccc32)n([C@H]2C[C@H](O)[C@@H](CO)O2)c2ncnc(N)c12

emission maximum (in CCOC(C)=O): 406 nm
Compound: C[Si](C)(C)c1cc2c(cc3ccc4cccc5ccc2c3c45)[nH]1

emission maximum (in ClCCl): 408 nm
Compound: CCOC(=O)c1c(-c2cc3ccccc3oc2=O)nn(-c2ccc(C)c(C)c2)c1C(=O)OCC

emission maximum (in C1CCCCC1): 403 nm | emission maximum (in C1COCCO1): 416 nm | emission maximum (in CC#N): 431 nm | emission maximum (in CCO): 440 nm | emission maximum (in OCC(F)(F)F): 469 nm
Compound: Cc1oc2c(Cl)cc3c(C)cc(=O)oc3c2c1C

emission maximum (in CC#N): 360 nm
Compound: C(#Cc1ccccc1C#Cc1ccccc1)c1ccccc1

emission maximum (in CS(C)=O): 412 nm
Compound: c1ccc(-c2nc3sc4ccccc4c3s2)cc1

emission maximum (in CCCCOCCCC): 374 nm
Compound: Clc1nc(Cl)nc(Nc2cc3ccc4cccc5ccc(c2)c3c45)n1

emission maximum (in ClCCl): 430 nm
Compound: O=c1oc2ccccc2cc1-c1ccc(-c2ccc(-c3cc4ccccc4oc3=O)cc2)cc1

emission maximum (in ClCCl): 591 nm
Compound: CCCc1ccc(C#Cc2cc(C#Cc3ccc(N(C)C)cc3)c3ccc4c(C#Cc5ccc(N(C)C)cc5)cc(C#Cc5ccc(CCC)cc5)c5ccc2c3c54)cc1

emission maximum (in O): 592 nm
Compound: CC[n+]1c(-c2ccccc2)c2cc(N)ccc2c2ccc(-n3cccc3)cc21

emission maximum (in ClCCl): 500 nm
Compound: COc1ccc2c(c1)CCC1=C(C#Cc3cc4ccccc4c4ccccc34)O[B-](F)(F)[O+]=C12

emission maximum (in C1COCCO1): 584 nm
Compound: CC(=O)Nc1ccc(C2=C/C(=C\c3ccc(C#N)cc3)C(=O)N2)cc1

emission maximum (in ClC(Cl)Cl): 495 nm
Compound: CN(C)c1ccc(-c2cc(-c3ccc(C#N)cc3)nc(-c3ccccc3)n2)cc1

emission maximum (in CC#N): 573 nm | emission maximum (in CCO): 578 nm | emission maximum (in CN(C)C=O): 574 nm | emission maximum (in O): 588 nm
Compound: CCN(CC)c1ccc2c(-c3ccc(S(=O)(=O)[O-])cc3S(=O)(=O)[O-])c3ccc(=[N+](CC)CC)cc-3oc2c1

emission maximum (in ClCCl): 418 nm
Compound: Cc1cccc(-c2c3ccccc3cc3ccccc23)n1

emission maximum (in CCO): 672 nm | emission maximum (in O): 684 nm
Compound: CC[N+](CC)=c1ccc2nc3c(cc(NCCC(=O)NC(C)C(=O)OC)c4ccccc43)oc-2c1 (centres undefined)

emission maximum (in C1COCCO1): 574 nm
Compound: COC(=O)c1ccc(/C=C2\C=C(c3ccc(OC)c(OC)c3)NC2=O)cc1

emission maximum (in ClCCl): 664 nm
Compound: F[B-]1(F)n2c(c3ccccc3c2-c2ccccc2)C(c2ccccc2)=C2c3ccccc3C(c3ccccc3)=[N+]21

emission maximum (in ClCCl): 621 nm
Compound: COCCOCCOCCOCC(COCCOCCOCCOC)Oc1cc(/C=C/c2ccc(/C=C(\C#N)C(=O)c3ccccc3)cc2)c(OC(COCCOCCOCCOC)COCCOCCOCCOC)cc1/C=C/c1ccc(/C=C(\C#N)C(=O)c2ccccc2)cc1

emission maximum (in ClC(Cl)Cl): 498 nm
Compound: c1ccc(-c2nc(-c3ccccn3)[se]c2N(c2ccccc2)c2ccccc2)cc1

emission maximum (in C1COCCO1): 588 nm | emission maximum (in CN(C)C=O): 604 nm | emission maximum (in CO): 618 nm | emission maximum (in CS(C)=O): 627 nm
Compound: O=C1/C(=C2\Sc3ccc(S(=O)(=O)Nc4ccccc4)cc3C2=O)Sc2ccc(S(=O)(=O)Nc3ccccc3)cc21

emission maximum (in ClC(Cl)Cl): 385 nm
Compound: CCCCCCCCC1(CCCCCCCC)c2cc(-c3ccc(C#N)cc3)ccc2-c2ccc(-c3ccc(C#N)cc3)cc21

emission maximum (in ClCCl): 428 nm
Compound: CCCCCC(=O)c1ccc2c3c(sc2c1)-c1ccccc1P3(=O)c1ccccc1 (centres undefined)

emission maximum (in CC#N): 480 nm | emission maximum (in ClCCl): 471 nm
Compound: Cc1cc(O)c(C(=O)/C=C/c2ccccc2[N+](=O)[O-])c(=O)o1

emission maximum (in ClCCl): 513 nm
Compound: CC(C)(C)c1ccc2c(c1)c1cc(C(C)(C)C)ccc1n2-c1ccc(N(c2ccc(-c3ccc(-c4ccc(-c5ccc(-c6ccc(N(c7ccc(-n8c9ccc(C(C)(C)C)cc9c9cc(C(C)(C)C)ccc98)cc7)c7ccc(-n8c9ccc(C(C)(C)C)cc9c9cc(C(C)(C)C)ccc98)cc7)cc6)cc5)c5nsnc45)cc3)cc2)c2ccc(-n3c4ccc(C(C)(C)C)cc4c4cc(C(C)(C)C)ccc43)cc2)cc1

emission maximum (in C1CCOC1): 537 nm | emission maximum (in CCCCCC): 440 nm | emission maximum (in ClC(Cl)Cl): 489 nm | emission maximum (in ClCCl): 556 nm
Compound: CN1C(=O)c2cccc3c(-n4c5ccccc5c5ccccc54)ccc(c23)C1=O
